The values below come from patent publication US9382254B2, “Compounds and pharmaceutical compositions thereof for the treatment of cystic fibrosis” (Galapagos NV, priority 2013, dated 2016).

Where only a bound is given, the exact number is not on record here.

Common to all, as to assay type: cell-based
Assay [1] addresses T1, CFTR ΔF508 mutant (Homo sapiens, UniProt P13569, DEL508-508).
T1 construct: expressed in transfected cells; host or cells: CFBE41o- (adenoviral transduction)
Description: YFP-halide influx assay for the CFTR-ΔF508 mutation, gluconate buffer. The settings on record: CFBE41o- cells, forskolin 10.67 μM. From the text:
The YFP halide influx assay measures the functionality of the cystic fibrosis Transmembrane Conductance regulator (CFTR) channels in the cystic fibrosis bronchial epithelium cell line CFBE41o-. The assay is used to evaluate the capacity of compounds to increase the open probability of existing CFTR channels in the membrane. It makes use of the observation that the yellow fluorescent protein (YFP) variant YFP H148Q, I152L has its fluorescence substantially quenched by halide ions like Cl^− and I^−. (Galietta, Haggie, & Verkman, 2001) (Nagai, et al., 2002)
For this purpose, CFBE41o-cells are seeded in 96 well plates (6000 CFBE cells/well). One day after seeding, the CFBE cells are transduced with adenoviral vectors that direct the expression of the CFTR ΔF508 mutant and of the YFP reporter. Cells are incubated at 27° C., 5% CO2 for 24 hours so as to allow for the proper folding and migration to the membrane of the CFTR channel or treated with a CFTR modulator during 24 hours at 37° C.
The I^−-induced quenching of fluorescence is recorded immediately after injection of I^− for 7 seconds. The capacity of a compound to increase the channel opening is directly correlated with the decrease in fluorescence, and is expressed as (1-(fluorescence after 7 seconds (F)/fluorescence before injection (F0))) and an EC50 can be derived from a (1-F/F0) vs compound concentration plot.

Assay [2] concerns the target T1, CFTR ΔF508 mutant. Briefly: YFP-halide influx assay for the CFTR-ΔF508 mutation (384 well, FDSS/μCell). The following applies: CFBE41o- cells, CFTR-ΔF508, 1×D-PBS, fluorescence after 36 seconds. The essentials: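 Potentiator read-out as 1−F/F0, F taken 36 s after iodide addition, EC50 fitted against compound concentration. Cells: CFBE41o- expressing ΔF508 CFTR plus halide-sensitive YFP via adenovirus, rescued by 27 °C for 24 h or 24 h modulator at 37 °C.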

The target of a further assay is T2, CFTR G551D mutant (Homo sapiens, UniProt P13569, G551D).
T2 construct: expressed in transfected cells; host or cells: HEK293 (reverse transfection with plasmid)
Description: YFP-halide influx assay for the CFTR-G551D mutation. The settings on record: HEK293 cells, forskolin 10.67 μM. Summed up: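 HEK293 cells reverse-transfected with CFTR G551D and YFP H148Q/I152L/F47L halide sensor, expressed 24 h at 37 °C. Iodide-induced fluorescence quench recorded 7 s after I− injection; response = 1−F/F0, with EC50 from plot against compound concentration.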

In general, EC50 refers to the midpoint of the concentration-response curve.

T2 sequence (P13569 whole entry G551D): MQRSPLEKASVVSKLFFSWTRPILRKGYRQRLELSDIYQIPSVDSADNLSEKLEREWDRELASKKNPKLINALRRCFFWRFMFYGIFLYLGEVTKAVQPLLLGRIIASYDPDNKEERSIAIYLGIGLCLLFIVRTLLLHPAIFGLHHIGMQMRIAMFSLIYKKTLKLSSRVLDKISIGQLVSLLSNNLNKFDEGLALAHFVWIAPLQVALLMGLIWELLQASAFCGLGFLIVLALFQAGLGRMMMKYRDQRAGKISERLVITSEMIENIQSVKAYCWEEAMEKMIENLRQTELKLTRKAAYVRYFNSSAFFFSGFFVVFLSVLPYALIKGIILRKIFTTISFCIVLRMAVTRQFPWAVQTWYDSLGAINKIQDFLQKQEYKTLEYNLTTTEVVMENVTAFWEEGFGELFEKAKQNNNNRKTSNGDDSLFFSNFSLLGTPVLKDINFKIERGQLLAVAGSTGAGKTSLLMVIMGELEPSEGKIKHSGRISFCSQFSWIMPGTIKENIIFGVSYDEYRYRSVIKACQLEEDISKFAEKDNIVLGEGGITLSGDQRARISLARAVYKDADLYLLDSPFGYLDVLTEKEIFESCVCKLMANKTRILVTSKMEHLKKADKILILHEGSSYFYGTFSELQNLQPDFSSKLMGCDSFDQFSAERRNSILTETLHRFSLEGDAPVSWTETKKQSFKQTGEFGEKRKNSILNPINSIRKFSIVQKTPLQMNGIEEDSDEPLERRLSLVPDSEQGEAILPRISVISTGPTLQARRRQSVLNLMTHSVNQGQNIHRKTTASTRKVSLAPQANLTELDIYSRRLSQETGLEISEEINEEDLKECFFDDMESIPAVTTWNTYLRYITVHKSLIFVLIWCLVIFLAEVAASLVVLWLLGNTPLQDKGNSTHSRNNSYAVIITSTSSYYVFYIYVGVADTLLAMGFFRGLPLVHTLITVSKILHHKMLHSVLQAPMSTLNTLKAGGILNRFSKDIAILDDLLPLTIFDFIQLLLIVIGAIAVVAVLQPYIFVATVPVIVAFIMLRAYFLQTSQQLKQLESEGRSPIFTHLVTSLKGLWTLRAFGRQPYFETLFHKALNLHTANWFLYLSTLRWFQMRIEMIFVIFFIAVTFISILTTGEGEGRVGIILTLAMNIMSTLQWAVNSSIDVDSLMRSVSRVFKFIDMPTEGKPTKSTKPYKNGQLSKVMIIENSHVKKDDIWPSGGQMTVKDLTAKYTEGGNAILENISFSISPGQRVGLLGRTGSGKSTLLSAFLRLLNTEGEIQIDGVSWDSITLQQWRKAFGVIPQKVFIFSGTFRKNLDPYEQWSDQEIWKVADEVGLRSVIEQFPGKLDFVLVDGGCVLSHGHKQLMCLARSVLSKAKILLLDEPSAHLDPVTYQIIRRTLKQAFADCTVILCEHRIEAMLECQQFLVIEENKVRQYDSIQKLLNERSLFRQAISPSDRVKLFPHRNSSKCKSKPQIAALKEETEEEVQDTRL
T1 sequence (P13569 with tags, fused parts or gaps DEL508-508): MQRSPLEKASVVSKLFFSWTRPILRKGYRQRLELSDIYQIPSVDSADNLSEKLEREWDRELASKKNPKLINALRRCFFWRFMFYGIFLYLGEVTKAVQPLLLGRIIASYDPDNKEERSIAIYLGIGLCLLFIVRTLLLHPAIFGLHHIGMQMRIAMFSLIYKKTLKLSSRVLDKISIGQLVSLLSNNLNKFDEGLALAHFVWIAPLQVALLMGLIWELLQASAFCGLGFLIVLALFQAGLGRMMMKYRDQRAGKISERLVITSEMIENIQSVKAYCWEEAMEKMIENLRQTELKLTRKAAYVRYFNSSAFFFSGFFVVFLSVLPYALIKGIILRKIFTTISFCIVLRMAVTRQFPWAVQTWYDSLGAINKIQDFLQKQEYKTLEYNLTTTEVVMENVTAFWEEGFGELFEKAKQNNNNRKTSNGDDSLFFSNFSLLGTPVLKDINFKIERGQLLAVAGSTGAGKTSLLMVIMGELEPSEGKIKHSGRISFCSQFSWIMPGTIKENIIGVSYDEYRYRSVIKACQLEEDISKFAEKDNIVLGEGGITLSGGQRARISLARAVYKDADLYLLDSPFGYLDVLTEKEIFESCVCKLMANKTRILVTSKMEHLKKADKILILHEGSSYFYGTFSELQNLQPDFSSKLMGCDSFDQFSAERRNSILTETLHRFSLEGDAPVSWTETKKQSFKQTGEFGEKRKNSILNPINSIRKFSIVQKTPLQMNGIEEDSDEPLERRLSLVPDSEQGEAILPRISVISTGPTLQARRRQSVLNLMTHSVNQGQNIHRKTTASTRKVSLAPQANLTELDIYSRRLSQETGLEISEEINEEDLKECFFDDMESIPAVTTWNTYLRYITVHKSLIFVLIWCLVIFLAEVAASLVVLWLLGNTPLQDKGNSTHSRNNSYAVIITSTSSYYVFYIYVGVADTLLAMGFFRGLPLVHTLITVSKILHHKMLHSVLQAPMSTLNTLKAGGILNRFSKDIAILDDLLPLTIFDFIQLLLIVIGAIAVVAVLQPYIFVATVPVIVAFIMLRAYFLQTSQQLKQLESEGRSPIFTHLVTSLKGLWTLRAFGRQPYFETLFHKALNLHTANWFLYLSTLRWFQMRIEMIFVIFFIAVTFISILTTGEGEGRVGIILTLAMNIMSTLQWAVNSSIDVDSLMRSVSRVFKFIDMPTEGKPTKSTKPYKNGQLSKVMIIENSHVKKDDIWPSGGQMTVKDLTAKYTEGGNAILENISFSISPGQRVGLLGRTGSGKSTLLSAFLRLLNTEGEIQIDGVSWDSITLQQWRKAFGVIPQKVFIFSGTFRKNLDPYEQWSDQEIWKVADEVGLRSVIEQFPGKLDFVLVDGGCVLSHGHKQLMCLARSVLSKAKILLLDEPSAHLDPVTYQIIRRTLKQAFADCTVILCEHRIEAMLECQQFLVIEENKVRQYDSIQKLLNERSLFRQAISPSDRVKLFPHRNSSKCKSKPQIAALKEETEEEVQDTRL

On CFTR ΔF508 mutant [1], `Cc1ccc(C(=O)Nc2sc(S(=O)(=O)N3CCCCC3)cc2C(N)=O)s1` [Compound 1, N-(3-carbamoyl-5-(piperidin-1-ylsulfonyl)thiophen-2-yl)-5-methylthiophene-2-carboxamidc] had an EC50 of 135 nM. Still for that read-out and setting: as for `NC(=O)c1cc(S(=O)(=O)N2CCCCC2)sc1NC(=O)c1cc2c(F)cccc2s1` [Compound 2, N-(3-carbamoyl-5-(piperidin-1-ylsulfonyl)thiophen-2-yl)-4-fluorobenzo[b] thiophene-2-carboxamide], the figure is 483 nM; as for `Cc1ccc(C(=O)Nc2sc(S(=O)(=O)N3CCN(C)CC3)cc2C(N)=O)s1` [Compound 5, N-(3-carbamoyl-5-(4-methylpiperazin-1-ylsulfonyl)thiophen-2-yl)-5-methylthiophene-2-carboxamide], 944 nM. On to `Cc1ccc(C(=O)Nc2sc(S(=O)(=O)N(C)Cc3ccccc3)cc2C(N)=O)s1` [Compound 6, N-(5-(N-benzyl-N-methylsulfamoyl)-3-carbamoylthiophen-2-yl)-5-methylthiophene-2-carboxamide], for which the EC50 on CFTR ΔF508 mutant [1] was determined as 321 nM.

Regarding `Cc1ccc(C(=O)Nc2sc(S(=O)(=O)N(C)c3ccccc3)cc2C(N)=O)s1` [Compound 7, N-(3-carbamoyl-5-(N-methyl-N-phenylsulfamoyl)thiophen-2-yl)-5-methylthiophen-2-carboxamide], the EC50 at CFTR ΔF508 mutant [1] came to 1080 nM. `Cc1ccc(C(=O)Nc2sc(S(=O)(=O)N3Cc4ccccc4C3)cc2C(N)=O)s1` [Compound 8, N-(3-carbamoyl-5-(isoindolin-2-ylsulfonyl)thiophen-2-yl)-5-methylthiphen-2-carboxamide] came in with an EC50 at CFTR ΔF508 mutant [1] of 646 nM. Against the preceding compound, the EC50 is about 1.7-fold lower. The same measure, in the same setting: as for `NC(=O)c1cc(S(=O)(=O)N2CCCCC2)sc1NC(=O)c1cc2c(s1)CCCC2` [Compound 9, N-(3-carbamoyl-5-(piperidin-1-ylsulfonyl)thiophen-2-yl)-4,5,6,7-tetrahydrobenzo[b] thiophene-2-carboxamide], the figure is 603 nM.

At CFTR ΔF508 mutant [1], `NC(=O)c1cc(S(=O)(=O)N2CCCCC2)sc1NC(=O)c1cc2ccccc2s1` [Compound 10, N-(3-carbamoyl-5-(piperidin-1-ylsulfonyl)thiophen-2-yl)benzo[b] thiophene-2-carboxamide] registered an EC50 of 628 nM. This EC50 and that of the compound before are within 1.5-fold of each other. On CFTR ΔF508 mutant [1], `N#Cc1cccc(C(=O)Nc2sc(S(=O)(=O)N3CCCCC3)cc2C(N)=O)c1` [Compound 11, 2-(3-cyanobenzamido)-5-(piperidin-1-ylsulfonyl) thiophene-3-carboxamide] yielded an EC50 of 568 nM. The EC50 values of the last two compounds are within 1.5-fold of each other.

`NC(=O)c1cc(S(=O)(=O)N2CCCCC2)sc1NC(=O)c1ccc2ncsc2c1` [Compound 12, N-(3-carbamoyl-5-(piperidin-1-ylsulfonyl)thiophen-2-yl)benzo[d] thiazole-6-carboxamide] showed an EC50 at CFTR ΔF508 mutant [1] of 887 nM. Still for that read-out and setting: next, `NC(=O)c1cc(S(=O)(=O)N2CCCCC2)sc1NC(=O)C1CCCC1` [Compound 13, 2-(cyclopentanecarboxamido)-5-(piperidin-1-ylsulfonyl)thiophene-3-carboxamide]: 401 nM; `NC(=O)c1cc(S(=O)(=O)N2CCCCC2)sc1NC(=O)c1cccc(F)c1` [Compound 14, 2-(3-fluorobenzamido)-5-(piperidin-1-ylsulfonyl)thiophene-3-carboxamide]: 357 nM; `Cc1ccc(C(=O)Nc2sc(S(=O)(=O)N(C)C)cc2C(N)=O)s1` [Compound 15, N-(3-carbamoyl-5-(N,N-dimethylsulfamoyl)thiophen-2-yl)-5-methylthiophene-2-carboxamide]: 169 nM.

`NC(=O)c1cc(S(=O)(=O)N2CCCCC2)sc1NC(=O)c1ccccc1Cl` [Compound 17, 2-(2-chlorobenzamido)-5-(piperidin-1-ylsulfonyl)thiophene-3-carboxamide] displayed an EC50 at CFTR ΔF508 mutant [1] of 265 nM. With `CC(C)(O)C(=O)Nc1sc(S(=O)(=O)c2nccnc2C(F)(F)F)cc1C(N)=O` [Compound 417, 2-[(2-hydroxy-2-methyl-propanoyl)amino]-5-[3-(trifluoromethyl)pyrazin-2-yl]sulfonyl-thiophene-3-carboxamide], the results for the EC50 on CFTR ΔF508 mutant [2] and at CFTR G551D mutant were 147 nM and 6660 nM, respectively. On to `CC(C)(O)C(=O)Nc1sc(S(=O)(=O)c2cc(CC#N)cc(OC(F)(F)F)c2)cc1C(N)=O` [Compound 428, 5-[3-(cyanomethyl)-5-(trifluoromethoxy)phenyl] sulfonyl-2-[(2-hydroxy-2-methyl-propanoyl)amino] thiophene-3-carboxamide], for which the EC50 on CFTR ΔF508 mutant [2] was 76.1 nM; on CFTR G551D mutant it was 3330 nM. With `CC(C)(O)C(=O)Nc1sc(S(=O)(=O)c2ccc(C(F)(F)F)nn2)cc1C(N)=O` [Compound 431, 2-[(2-hydroxy-2-methyl-propanoyl)amino]-5-[6-(trifluoromethyl)pyridazin-3-yl]sulfonyl-thiophene-3-carboxamide], the EC50 is 150 nM at CFTR ΔF508 mutant [2] and 2220 nM on CFTR G551D mutant. Take `CN1COCc2cc(S(=O)(=O)c3cc(C(N)=O)c(NC(=O)C(C)(C)O)s3)ccc21` [Compound 434, 2-[(2-hdyroxy-2-methyl-propanoyl)amino]-5-[(1-methyl-2,4-dihydro-3,1-benzoxazin-6-yl)sulfonyl] thiophene-3-carboxamide]: the EC50 at CFTR ΔF508 mutant [2] was determined as 227 nM; on CFTR G551D mutant it was 1930 nM.

`CC(C)(O)C(=O)Nc1sc(S(=O)(=O)c2cccnc2C(F)(F)F)cc1C(N)=O` [Compound 436, 2-[(2-hydroxy-2-methyl-propanoyl)amino]-5-[[2-(trifluoromethyl)-3-pyridyl]sulfonyl] thiophene-3-carboxamide]: the EC50 on CFTR ΔF508 mutant [2] was 32.1 nM; at CFTR G551D mutant, 1730 nM. `CC(C)(O)C(=O)Nc1sc(S(=O)(=O)c2nc(CO)ccc2C(F)(F)F)cc1C(N)=O` [Compound 438, 2-[(2-hydroxy-2-methyl-propanoyl)amino]-5-[[6-(hydroxymethyl)-3-(trifluoromethyl)-2-pyridyl]sulfonyl] thiophene-3-carboxamide]: the EC50 at CFTR ΔF508 mutant [2] is 216 nM; on CFTR G551D mutant (class symbol), above 1000 nM. Consider `Cc1c(S(=O)(=O)c2ccc(C(F)(F)F)cc2F)sc(NC(=O)C(C)(C)O)c1C(N)=O` [Compound 439, 5-[2-fluoro-4-(trifluoromethyl)phenyl]sulfonyl-2-[(2-hydroxy-2-methyl-propanoyl)amino]-4-methyl-thiophene-3-carboxamide], for which the EC50 at CFTR ΔF508 mutant [2] came to 7.16 nM; at CFTR G551D mutant, 6660 nM. Regarding `CC(C)(O)C(=O)Nc1sc(S(=O)(=O)c2cc(Cl)cnc2C(F)(F)F)cc1C(N)=O` [Compound 440, 5-[[5-chloro-2-(trifluoromethyl)-3-pyridyl]sulfonyl]-2-[(2-hydroxy-2-methyl-propanoyl)amino] thiophene-3-carboxamide], the EC50 at CFTR ΔF508 mutant [2] is 13 nM; at CFTR G551D mutant, 2190 nM.

In the case of `NC(=O)c1cc(S(=O)(=O)c2ccc(OC(F)(F)F)cc2)sc1NC(=O)C1CCCO1` (stereo not shown) [Compound 442, N-[3-carbamoyl-5-[4-(trifluoromethoxy)phenyl]sulfonyl-2-thienyl] tetrahydrofuran-2-carboxamide], the results for the EC50 on CFTR ΔF508 mutant [2] and on CFTR G551D mutant were 90.9 nM and 3330 nM, respectively. As to `NC(=O)c1cc(S(=O)(=O)c2ccc(OC(F)(F)F)cc2)sc1NC(=O)C1CCOC1` (stereo not shown) [Compound 443, N-[3-carbamoyl-5-[4-(trifluoromethoxy)phenyl]sulfonyl-2-thienyl] tetrahydrofuran-3-carboxamide], the EC50 on CFTR ΔF508 mutant [2] worked out at 107 nM; at CFTR G551D mutant, 3330 nM.
